The target in the experiment is T1, SFRP-1 (Homo sapiens, UniProt Q8N474).
T1 sequence (Q8N474 32-314): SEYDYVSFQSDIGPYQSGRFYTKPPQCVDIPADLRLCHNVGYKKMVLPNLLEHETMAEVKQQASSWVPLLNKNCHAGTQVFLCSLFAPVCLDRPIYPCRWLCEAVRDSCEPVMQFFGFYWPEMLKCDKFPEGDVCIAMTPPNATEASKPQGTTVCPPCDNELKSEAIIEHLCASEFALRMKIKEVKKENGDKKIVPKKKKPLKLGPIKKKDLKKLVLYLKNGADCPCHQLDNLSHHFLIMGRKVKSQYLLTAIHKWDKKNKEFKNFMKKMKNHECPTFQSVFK
As to the kind of experiment: Cell-based assay for in vitro measurement of SFRP-1/SARP2 antagonist activity (U2OS cells co-transfected with 16x TCF-tk-Luciferase reporter, Wnt and hSFRP-1).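 Also: U2OS cells co-transfected with a TCF-tk luciferase reporter, a Wnt vector, hSFRP-1 or empty vector and CMV-βgal, luciferase luminescence read in cell lysates alongside βgal activity.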 Conditions: U2OS. On the technique in general: In a reporter assay the amount or activity of a reporter protein is the signal.

Setting [1] is: read-out: Fold Induction with SFRP-1, Conc 30 μM, with SFRP-1, fold induction over SFRP-1 control, single dose.
Where [2] appears, read: read-out: Fold Induction without SFRP-1, Conc 30 μM, without SFRP-1, single dose.
Where [3] appears, read: read-out: Fold Induction with SFRP-1, Conc 15 μM, with SFRP-1, fold induction over SFRP-1 control, single dose.
The mark [4] stands for this setting: read-out: Fold Induction without SFRP-1, Conc 15 μM, without SFRP-1, single dose.

Where two headings read alike, the source gives them in different places.

Take `COC(=O)CCNS(=O)(=O)c1cccc(S(=O)(=O)c2ccccc2)c1` [Example 182, methyl N-{[3-(phenylsulfonyl)phenyl]sulfonyl}-beta-alaninate]: the fold induction at 30 µM reads like this: under setting [1], 1; under setting [2], 1.

Regarding `N#CCCNS(=O)(=O)c1cccc(S(=O)(=O)c2ccccc2)c1` [Example 183, N-(2-cyanoethyl)-3-(phenylsulfonyl)benzenesulfonamide], the fold induction at 30 µM runs as follows: under setting [1], 1.3; under setting [2], 1.

In the case of `O=S(=O)(NCCc1ccccn1)c1cccc(S(=O)(=O)c2ccccc2)c1` [Example 184, 3-(phenylsulfonyl)-N-(2-pyridin-2-ylethyl)benzenesulfonamide], the fold induction at 30 µM runs as follows: under setting [1], 1.2; under setting [2], 0.9.

As to `O=S(=O)(NCCCN1CCOCC1)c1cccc(S(=O)(=O)c2ccccc2)c1` [Example 185, N-(3-morpholin-4-ylpropyl)-3-(phenylsulfonyl)benzenesulfonamide], the fold induction at 30 µM by setting is: under setting [1], 1.3; under setting [2], 1.1.

With `CN1CCCC1CCNS(=O)(=O)c1cccc(S(=O)(=O)c2ccccc2)c1` (stereo not drawn) [Example 186, N-[2-(1-methylpyrrolidin-2-yl)ethyl]-3-(phenylsulfonyl)benzenesulfonamide], the fold induction at 30 µM reads like this: under setting [1], 1.3; under setting [2], 1.3.

For the molecule `O=S(=O)(NCCc1ccncc1)c1cccc(S(=O)(=O)c2ccccc2)c1` [Example 187, 3-(phenylsulfonyl)-N-(2-pyridin-4-ylethyl)benzenesulfonamide], the fold induction at 30 µM came out at 1.9 under setting [1] and 1 under setting [2].

As for `O=S(=O)(NCCN1CCCCC1)c1cccc(S(=O)(=O)c2ccccc2)c1` [Example 188, 3-(phenylsulfonyl)-N-(2-piperidin-1-ylethyl)benzenesulfonamide], the fold induction at 30 µM runs as follows: under setting [1], 1.4; under setting [2], 1.4.

`O=S(=O)(NCCc1c[nH]cn1)c1cccc(S(=O)(=O)c2ccccc2)c1` [Example 189, N-[2-(1H-imidazol-4-yl)ethyl]-3-(phenylsulfonyl)benzenesulfonamide]: the fold induction at 30 µM by setting is: under setting [1], 1.3; under setting [2], 1.

As to `CC(=O)NCCNS(=O)(=O)c1cccc(S(=O)(=O)c2ccccc2)c1` [Example 190, N-[2-({[3-(phenylsulfonyl)phenyl]sulfonyl}amino)ethyl]acetamide], the fold induction at 30 µM runs as follows: under setting [1], 1.2; under setting [2], 1.

On to `O=S(=O)(NCCN1CCOCC1)c1cccc(S(=O)(=O)c2ccccc2)c1` [Example 191, N-(2-morpholin-4-ylethyl)-3-(phenylsulfonyl)benzenesulfonamide], for which the fold induction at 30 µM is, setting by setting: under setting [1], 1.2; under setting [2], 1.2.

In the case of `O=C1CCCN1CCCNS(=O)(=O)c1cccc(S(=O)(=O)c2ccccc2)c1` [Example 192, N-[3-(2-oxopyrrolidin-1-yl)propyl]-3-(phenylsulfonyl)benzenesulfonamide], the fold induction at 30 µM worked out at 1.1 under setting [1] and 1.1 under setting [2].

On to `CCN(CC)CCNS(=O)(=O)c1cccc(S(=O)(=O)c2ccccc2)c1` [Example 193, N-[2-(diethylamino)ethyl]-3-(phenylsulfonyl)benzenesulfonamide], for which the fold induction at 30 µM is, setting by setting: under setting [1], 1.2; under setting [2], 1.3.

With `CN(C)CCNS(=O)(=O)c1cccc(S(=O)(=O)c2ccccc2)c1` [Example 194, N-[2-(dimethylamino)ethyl]-3-(phenylsulfonyl)benzenesulfonamide], the fold induction at 30 µM runs as follows: under setting [1], 1.3; under setting [2], 1.2.

Take `COCCCNS(=O)(=O)c1cccc(S(=O)(=O)c2ccccc2)c1` [Example 195, N-(3-methoxypropyl)-3-(phenylsulfonyl)benzenesulfonamide]: the fold induction at 30 µM was 1.2 under setting [1] and 0.9 under setting [2].

Consider `CN(C)CCCNS(=O)(=O)c1cccc(S(=O)(=O)c2ccccc2)c1` [Example 196, N-[3-(dimethylamino)propyl]-3-(phenylsulfonyl)benzenesulfonamide], for which the fold induction at 30 µM was 1.4 under setting [1] and 1.3 under setting [2].

With `COCCNS(=O)(=O)c1cccc(S(=O)(=O)c2ccccc2)c1` [Example 197, N-(2-methoxyethyl)-3-(phenylsulfonyl)benzenesulfonamide], the fold induction at 30 µM runs as follows: under setting [1], 1.1; under setting [2], 1.2.

Take `CCN(CC)CCCNS(=O)(=O)c1cccc(S(=O)(=O)c2ccccc2)c1` [Example 198, N-[3-(diethylamino)propyl]-3-(phenylsulfonyl)benzenesulfonamide]: the fold induction at 30 µM by setting is: under setting [1], 1.1; under setting [2], 1.3.

Turning to `O=S(=O)(NCCCn1ccnc1)c1cccc(S(=O)(=O)c2ccccc2)c1` [Example 199, N-[3-(1H-imidazol-1-yl)propyl]-3-(phenylsulfonyl)benzenesulfonamide], the fold induction at 30 µM runs as follows: under setting [1], 1.1; under setting [2], 1.

As to `O=S(=O)(NCCCN1CCCC1)c1cccc(S(=O)(=O)c2ccccc2)c1` [Example 200, 3-(phenylsulfonyl)-N-(3-pyrrolidin-1-ylpropyl)benzenesulfonamide], the fold induction at 30 µM under setting [1] is 1.4 and the fold induction at 30 µM under setting [2] worked out at 1.8.

`CN1CCN(CCCNS(=O)(=O)c2cccc(S(=O)(=O)c3ccccc3)c2)CC1` [Example 201, N-[3-(4-methylpiperazin-1-yl)propyl]-3-(phenylsulfonyl)benzenesulfonamide]: the fold induction at 30 µM under setting [1] was 1.1 and the fold induction at 30 µM under setting [2] is 1.2.

Turning to `O=C(O)CCNS(=O)(=O)c1cccc(S(=O)(=O)c2ccccc2)c1` [Example 202, N-{[3-(phenylsulfonyl)phenyl]sulfonyl)-beta-alanine], the fold induction at 30 µM is, setting by setting: under setting [1], 1.1; under setting [2], 1.2.

On to `Cc1ccc(S(=O)(=O)c2ccccc2)cc1S(=O)(=O)NCCC(N)=O` [Example 203, N^3-{[2-methyl-5-(phenylsulfonyl)phenyl]sulfonyl}-beta-alaninamide], for which the fold induction at 15 µM turned out to be 2.5 under setting [3] and 1.3 under setting [4].

As to `Cc1ccc(S(=O)(=O)c2ccccc2)cc1S(=O)(=O)NCCCN1CCOCC1` [Example 206, 2-methyl-N-(3-morpholin-4-ylpropyl)-5-(phenylsulfonyl)benzenesulfonamide], the fold induction at 15 µM turned out to be 2.2 under setting [3] and 0.5 under setting [4].

`Cc1ccc(S(=O)(=O)c2ccccc2)cc1S(=O)(=O)NCCC1CCCN1C` (stereo not drawn) [Example 207, 2-methyl-N-[2-(1-methylpyrrolidin-2-yl)ethyl]-5-(phenylsulfonyl)benzenesulfonamide]: the fold induction at 15 µM under setting [3] worked out at 2.3 and the fold induction at 15 µM under setting [4] was determined as 1.1.

Take `Cc1ccc(S(=O)(=O)c2ccccc2)cc1S(=O)(=O)NCCc1ccncc1` [Example 208, 2-methyl-5-(phenylsulfonyl)-N-(2-pyridin-4-ylethyl)benzenesulfonamide]: the fold induction at 15 µM reads like this: under setting [3], 2.6; under setting [4], 0.9.

Turning to `Cc1ccc(S(=O)(=O)c2ccccc2)cc1S(=O)(=O)NCCN1CCCCC1` [Example 209, 2-methyl-5-(phenylsulfonyl)-N-(2-piperidin-1-ylethyl)benzenesulfonamide], the fold induction at 15 µM by setting is: under setting [3], 2.2; under setting [4], 1.3.

On to `Cc1ccc(S(=O)(=O)c2ccccc2)cc1S(=O)(=O)NCCc1c[nH]cn1` [Example 210, N-[2-(1H-imidazol-4-yl)ethyl]-2-methyl-5-(phenylsulfonyl)benzenesulfonamide], for which the fold induction at 15 µM by setting is: under setting [3], 2.5; under setting [4], 1.

Consider `Cc1ccc(S(=O)(=O)c2ccccc2)cc1S(=O)(=O)NCCN1CCOCC1` [Example 211, 2-methyl-N-(2-morpholin-4-ylethyl)-5-(phenylsulfonyl)benzenesulfonamide], for which the fold induction at 15 µM reads like this: under setting [3], 2.3; under setting [4], 0.7.

Regarding `Cc1ccc(S(=O)(=O)c2ccccc2)cc1S(=O)(=O)NCCCN1CCCC1=O` [Example 212, 2-methyl-N-[3-(2-oxopyrrolidin-1-yl)propyl]-5-(phenylsulfonyl)benzenesulfonamide], the fold induction at 15 µM was 2 under setting [3] and 0.9 under setting [4].

As to `CCN(CC)CCNS(=O)(=O)c1cc(S(=O)(=O)c2ccccc2)ccc1C` [Example 213, N-[2-(diethylamino)ethyl]-2-methyl-5-(phenylsulfonyl)benzenesulfonamide], the fold induction at 15 µM is, setting by setting: under setting [3], 1.8; under setting [4], 1.3.

In the case of `Cc1ccc(S(=O)(=O)c2ccccc2)cc1S(=O)(=O)NCCN(C)C` [Example 214, N-[2-(dimethylamino)ethyl]-2-methyl-5-(phenylsulfonyl)benzenesulfonamide], the fold induction at 15 µM is 3.2 under setting [3] and 1.5 under setting [4].

As for `COCCCNS(=O)(=O)c1cc(S(=O)(=O)c2ccccc2)ccc1C` [Example 215, N-(3-methoxypropyl)-2-methyl-5-(phenylsulfonyl)benzenesulfonamide], the fold induction at 15 µM reads like this: under setting [3], 2.9; under setting [4], 1.

As for `Cc1ccc(S(=O)(=O)c2ccccc2)cc1S(=O)(=O)NCCCN(C)C` [Example 216, N-[3-(dimethylamino)propyl]-2-methyl-5-(phenylsulfonyl)benzenesulfonamide], the fold induction at 15 µM turned out to be 3.6 under setting [3] and 1.3 under setting [4].

The values above are taken from patent publication US20060276464A1, “Diarylsulfone sulfonamides and use thereof” (Wyeth, priority 2005, published 2006).
